Experimental data published in PubChem BioAssay (NCI).
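48-hour exposure; five concentrations; linearly interpolated endpoints. The concentration for full growth arrest is given as TGI.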 *1 amine or outer side, *2 acyl side, *3 side chain or, on linkers, in order; H or OH if unused. Where a SMILES comes first, the peptide text is derived from it. [ ]: non-standard residue; d: D form. ξ: configuration not given here. X22 = O=C(C(CC(O)CO)O[*:1])[*:2]; Ile(3ξ) = CCC(C)[C@H](N)C(=O)O; NMeV = CN[C@H](C(=O)O)C(C)C; NMeA = CN[C@@H](C)C(=O)O; βAla = NCCC(=O)O

What was measured:
Assay in all cases: NCI tumour cell line growth inhibition, 48 h
[1] = tested on: DMS 273 small cell lung
[2] = tested on: DMS 114 small cell lung
[3] = tested on: KM20L2 colon
[4] = tested on: DLD-1 colon
[5] = tested on: LXFL 529 NSCLC
[6] = tested on: SNB-78 CNS
[7] = tested on: M19-MEL melanoma
[8] = tested on: RXF-631 renal
[9] = tested on: HOP-18 NSCLC

Row | Compound | TGI [1] [µM] | TGI [2] [µM] | TGI [3] [µM] | TGI [4] [µM] | TGI [5] [µM] | TGI [6] [µM] | TGI [7] [µM] | TGI [8] [µM] | TGI [9] [µM]
1 | CSc1nc2nc(C(O)C(O)C(O)CO)cnc2c(=O)[nH]1 (configuration not stated) | > 100 | > 100 | > 100 | > 100 | > 100 | > 100 | > 100 | – | –
2 | Cc1nc2ccc(N)cc2[nH]c1=O | > 100 | – | > 100 | > 100 | > 100 | > 100 | > 100 | > 100 | –
3 | N#CC1CCCCC1NC1(C#N)CCCCC1 (configuration not stated) | > 100 | > 100 | > 100 | > 100 | > 100 | > 100 | – | – | –
4 | COC1=CC(=O)C2C(C1=O)C(c1ccc(Cl)cc1)[C@@H]2C (some centres not stated) | > 100 | 47.7 | > 100 | 70.5 | 32.7 | > 100 | 97.9 | – | 25.2
5 | CCC(C)[C@@H]1NC(=O)[C@@H]2CCCN2C(=O)C(CC(O)CO)OC(=O)CCNC(=O)[C@H](C)N(C)C(=O)[C@H](C(C)C)N(C)C1=O (some centres not stated) (cyclo([Ile(3ξ)][NMeV][NMeA][βAla][X22]P)) | > 100 | – | > 100 | > 100 | > 100 | > 100 | > 100 | > 100 | –
6 | COC(=O)C(Cc1nc2ccccc2[nH]c1=O)C(=O)C(=O)Nc1ccc(F)cc1 (configuration not stated) | > 100 | 80.7 | > 100 | > 100 | 30 | – | > 100 | > 100 | > 100
7 | CCOC(=O)CC(NCc1ccc(N=Cc2nc3ccc(C(F)(F)F)cc3nc2-c2ccccc2)cc1)C(=O)OCC (configuration not stated) | > 100 | > 100 | > 100 | > 100 | > 100 | > 100 | > 100 | – | > 100
8 | C=C(C)CC(C)(c1cc2ccccc2n1C)N1CCOCC1 (configuration not stated) | > 100 | – | > 100 | > 100 | > 100 | – | > 100 | > 100 | > 100
9 | CC(=O)NC(CCCNC(=O)OCc1ccccc1)C(=O)O (configuration not stated) | > 100 | > 100 | > 100 | > 100 | > 100 | > 100 | > 100 | > 100 | –
10 | COC(=O)N/N=C(/c1nc2ccc([N+](=O)[O-])cc2[nH]c1=O)C(O)c1ccc(OC)c(OC)c1 (configuration not stated) | 63.7 | 51.3 | > 100 | > 100 | > 100 | > 100 | > 100 | > 100 | > 100
11 | CCOC(=O)C1=C(c2ccccc2)N(C(C)=O)Cc2ccccc21 | 29.8 | 25.9 | 53.7 | > 100 | > 100 | – | 39.3 | – | 99.4
12 | CCSc1nnc(-c2ccccc2)nc1Cc1ccc(OC)cc1 | > 100 | – | > 100 | > 100 | > 100 | > 100 | > 100 | – | > 100
13 | C[N+]1(C)C[C@@H](O)C[C@@H]1C(=O)[O-] | > 100 | > 100 | > 100 | > 100 | > 100 | > 100 | > 100 | – | > 100
